Laboratory results as given in patent EP0399731B2, “Azaindenes” (AstraZeneca AB, priority 1989, dated 1990).

How the values were obtained:
[1] = target: T1, All (angiotensin II) receptors (Cavia porcellus, UniProt Q9WV26); test: Test A: displacement of radiolabelled All binding from guinea pig adrenal gland membrane fraction; conditions: guinea pig adrenal gland membranes; read-out: IC50 (concentration for 50% displacement of radiolabelled All binding)
T1 construct: from tissue; host or cells: guinea pig adrenal gland, cell surface membrane fraction
T1 sequence (Q9WV26 1-359): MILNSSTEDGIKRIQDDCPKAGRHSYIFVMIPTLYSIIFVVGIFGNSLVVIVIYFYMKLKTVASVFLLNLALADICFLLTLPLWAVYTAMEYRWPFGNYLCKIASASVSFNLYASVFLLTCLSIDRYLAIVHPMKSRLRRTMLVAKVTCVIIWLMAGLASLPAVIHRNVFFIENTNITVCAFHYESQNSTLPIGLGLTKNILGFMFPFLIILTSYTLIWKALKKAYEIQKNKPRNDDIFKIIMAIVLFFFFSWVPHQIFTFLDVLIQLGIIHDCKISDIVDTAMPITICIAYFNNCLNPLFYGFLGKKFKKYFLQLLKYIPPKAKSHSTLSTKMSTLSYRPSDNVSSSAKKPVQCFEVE
Protocol: This in vitro procedure involves the incubation of the test compound initially at a concentration of 100 micromolar (or less) in a buffered mixture containing fixed concentrations of radiolabelled All and a cell surface membrane fraction prepared from a suitable angiotensin target tissue. In this test, the source of cell surface membranes is the guinea pig adrenal gland which is well known to respond to All. Interaction of the radiolabelled All with its receptors (assessed as radiolabel bound to the particulate membrane fraction following removal of unbound radiolabel by a rapid filtration procedure such as is standard in such studies) is antagonized by compounds which also bind to the membrane receptor sites and the degree of antagonism (observed in the test as displacement of membrane-bound radioactivity) is determined readily by comparing the receptor-bound radioactivity in the presence of the test compound at the specified test concentration with a control value determined in the absence of the test compound. Using this procedure compounds showing at least 50% displacement of radiolabelled All binding at a concentration of 10^-4 M are retested at lower concentrations to determine their potency. […]

[2] = test system: All-induced contractions of isolated rabbit aorta; test: Test B: antagonism of All-induced contractions of isolated rabbit aorta; assay type: cell-based; conditions: 37°C
Protocol: This in vitro test involves the measurement of the antagonistic effects of the test compound against All-induced contractions of isolated rabbit aorta, maintained in a physiological salt solution at 37°C. In order to ensure that the effect of the compound is specific to antagonism of All, the effect of the test compound on noradrenaline-induced contractions may also be determined in the same preparation.

[3] = test system: angiotensin II-induced pressor responses; test: Test C: antagonism of angiotensin II-induced pressor responses in terminally-anaesthetised or conscious rats; assay type: in vivo; conditions: Rattus norvegicus
Protocol: This in vivo test involves using terminally-anaesthetised or conscious rats in which an arterial catheter has been implanted under anaesthesia for the measurement of changes in blood pressure. The All antagonistic effects of the test compound following oral or parenteral administration, are assessed against angiotensin II-induced pressor responses. To ensure that the effect is specific the effect of the test compound on vasopressin-induced pressor responses may also be determined in the same preparation.

CCCCc1nc2cccnc2n1Cc1ccc(-c2ccccc2-c2nnn[nH]2)cc1.Cl [Example 3, 2-butyl-3-[(2'-(1H-tetrazol-5-yl)biphenyl-4-yl)methyl]-3H-imidazo[4,5-b]pyridine hydrochloride]
IC50 [1]: 14.9 nM | pA2 [2]: 9.2 | inhibition at 20 mg/kg ([3]; 1 h, after one hour at a dose of 20mg/kg (oral administration)): 54% | ED50 ([3]; parenteral administration): 1.07 mg/kg
